# Experimental data taken from PubChem BioAssay (NCI).
#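 Growth conditions: 96-well plates. Treatment: test compound, 48 hours, 5 concentrations. Analysis: linear interpolation between bracketing concentrations; unreached endpoints set to highest concentration. Abbreviation: GI50, concentration required for 50% inhibition of growth. The concentration for full growth arrest is given as TGI.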
# Columns and labels:
# Test in all cases: growth of human tumour cells (NCI), 48 h
# PC-3 prostate = test system: PC-3 prostate
# NCI-H522 lung = test system: NCI-H522 lung
# MDA-MB-435 = test system: MDA-MB-435
# NCI-H460 lung = test system: NCI-H460 lung
# HOP-92 NSCLC = test system: HOP-92 NSCLC
# SW-620 colon = test system: SW-620 colon
# NCI-H23 lung = test system: NCI-H23 lung
# HS 578T breast = test system: HS 578T breast
# SK-MEL-5 melanoma = test system: SK-MEL-5 melanoma
# SR leukemia = test system: SR leukemia
Structure (SMILES),GI50 (PC-3 prostate),TGI (PC-3 prostate),GI50 (NCI-H522 lung),TGI (NCI-H522 lung),GI50 (MDA-MB-435),TGI (MDA-MB-435),GI50 (NCI-H460 lung),TGI (NCI-H460 lung),GI50 (HOP-92 NSCLC),TGI (HOP-92 NSCLC),GI50 (SW-620 colon),TGI (SW-620 colon),GI50 (NCI-H23 lung),TGI (NCI-H23 lung),GI50 (HS 578T breast),TGI (HS 578T breast),GI50 (SK-MEL-5 melanoma),TGI (SK-MEL-5 melanoma),TGI (SR leukemia),GI50 (SR leukemia)
C=CCN=C(N/N=C/c1ccc([N+](=O)[O-])o1)NS(=O)(=O)c1cc(C(=O)Nc2ccccc2)c(Cl)cc1SCC(N)=O,33 µM,> 100 µM,27.8 µM,67.1 µM,17.9 µM,36.7 µM,69.4 µM,> 100 µM,13.6 µM,52.2 µM,5.99 µM,37.4 µM,20.9 µM,49.6 µM,15.6 µM,66.3 µM,5.45 µM,18.3 µM,,
O=c1cccccc1[O-].O=c1cccccc1[O-].O=c1cccccc1[O-].[Sm+3],,,,> 100 µM,,,,> 100 µM,,> 100 µM,,> 100 µM,,71.5 µM,,,,89.9 µM,,
[Cl-].[Gd+3].[O-]/N=C(\c1ccccc1)c1ccccn1.[O-]/N=C(\c1ccccc1)c1ccccn1.[O-]/N=C(\c1ccccc1)c1ccccn1,,,40.4 µM,> 100 µM,,,50.7 µM,> 100 µM,> 100 µM,> 100 µM,41.7 µM,> 100 µM,> 100 µM,> 100 µM,,,48.9 µM,> 100 µM,,
COc1ccc(Cc2nc3cc(OC)c(OC)cc3c(=O)[nH]2)cc1,22 µM,> 100 µM,14.5 µM,> 100 µM,5.15 µM,57.1 µM,15.3 µM,> 100 µM,21.9 µM,> 100 µM,3.32 µM,> 63.5 µM,4.03 µM,33.1 µM,9.98 µM,99.2 µM,9.33 µM,28.8 µM,,
OCC(O)C(O)C(O)C(O)c1nn[nH]n1 (centres undefined),,,,> 100 µM,,,,> 100 µM,,> 100 µM,,> 100 µM,,> 100 µM,,,,> 100 µM,> 100 µM,
NC(=O)c1ncn(C2OC(CO)C(O)C2O)c1N (centres undefined),> 100 µM,> 100 µM,> 100 µM,> 100 µM,> 100 µM,> 100 µM,> 100 µM,> 100 µM,> 100 µM,> 100 µM,> 100 µM,> 100 µM,> 100 µM,> 100 µM,> 100 µM,> 100 µM,> 100 µM,> 100 µM,,
COC(=O)C1CCC(=O)N1/C(C)=N/NC(=O)Nc1ccc(Cl)c(Cl)c1 (centres undefined),,,,,,,,> 100 µM,,> 100 µM,,> 100 µM,,> 100 µM,,,,> 100 µM,> 100 µM,
c1cncc(C2ONC3=NCCN32)c1 (centres undefined),30.8 µM,> 100 µM,9.59 µM,> 100 µM,50.8 µM,> 100 µM,31 µM,> 100 µM,,,35.5 µM,> 100 µM,54 µM,> 100 µM,,,23.6 µM,> 100 µM,,
Clc1ccc2c(NCCCN3CCN(c4nc(N5CCOCC5)nc5ccccc45)CC3)ccnc2c1,,,1.97 µM,3.73 µM,1.81 µM,3.36 µM,1.91 µM,3.84 µM,,,1.62 µM,3.5 µM,,,1.5 µM,3.72 µM,1.73 µM,3.12 µM,4.57 µM,1.35 µM
O=C(/C=C(\[O-])c1ccccc1)CCCCCCC(=O)/C=C(\[O-])c1ccccc1.O=C(/C=C(\[O-])c1ccccc1)CCCCCCC(=O)/C=C(\[O-])c1ccccc1.O=C(/C=C(\[O-])c1ccccc1)CCCCCCC(=O)/C=C(\[O-])c1ccccc1.[Nd+3].[Nd+3],,,> 50 µM,> 50 µM,,,> 50 µM,> 50 µM,43.8 µM,> 50 µM,> 50 µM,> 50 µM,> 50 µM,> 50 µM,,,> 50 µM,> 50 µM,,
COc1ccc(-c2cc(-c3ccccc3)nc(NCCNc3ccnc4cc(Cl)ccc34)n2)cc1,,,1.87 µM,3.8 µM,1.47 µM,3.01 µM,1.92 µM,3.72 µM,1.17 µM,2.57 µM,1.32 µM,2.99 µM,1.84 µM,3.7 µM,1.81 µM,3.78 µM,1.79 µM,3.3 µM,> 100 µM,0.435 µM
O=C(Nc1ccc(C(F)(F)F)cc1[N+](=O)[O-])c1cccnc1,,,,36.1 µM,,2.5 µM,,36.8 µM,,,,> 100 µM,,> 100 µM,,> 100 µM,,> 100 µM,> 100 µM,
C=C1CC/C=C(\C)CC[C@H](C(=C)C)[C@@H](O)/C=C(/CO)CCC1O (some centres undefined),43.4 µM,> 100 µM,60.7 µM,> 100 µM,40.5 µM,> 100 µM,54.8 µM,> 100 µM,,,72.8 µM,> 100 µM,80.6 µM,> 100 µM,42.5 µM,> 100 µM,35.1 µM,> 100 µM,,
COc1ccc(C(=O)O/N=C2/CCCCC2CN(C)C)cc1 (centres undefined),,,,> 100 µM,,,,> 100 µM,,> 100 µM,,> 100 µM,,> 100 µM,,,,> 100 µM,> 100 µM,
CC(=O)[O-].[Mn+3].[O-]c1ccc(Cl)cc1C=NCCN=Cc1cc(Cl)ccc1[O-],,,> 100 µM,> 100 µM,,,> 100 µM,> 100 µM,,,,,> 100 µM,> 100 µM,,,88.5 µM,> 100 µM,,
COc1ccc2c(c1)[n+](=O)c(C(C)=O)c(C)n2[O-],,,,> 100 µM,,,,> 100 µM,,> 100 µM,,> 100 µM,,> 100 µM,,,,> 100 µM,,
O=C(CC1=Nc2nnc(-c3nnc4n3C(=O)C(CC(=O)C3CC3)=N4)n2C1=O)C1CC1,,,,> 100 µM,,,,> 100 µM,,> 100 µM,,> 100 µM,,> 100 µM,,,,> 100 µM,,
CC1CC(C)C(C(O)CC2CC(=O)N(c3ccccc3)C(=O)C2)C(O)C1 (centres undefined),,,,> 100 µM,,,,> 100 µM,,> 100 µM,,> 100 µM,,> 100 µM,,,,,> 100 µM,
N#CCCN(CCC#N)c1ccc(C=Nc2ccc(F)cc2)cc1,,> 100 µM,,> 100 µM,,> 100 µM,,> 100 µM,,> 100 µM,,> 100 µM,,> 100 µM,,,,> 100 µM,> 100 µM,
